Data as given in PubChem BioAssay AID1996.
In brackets after ≈: the same amount, converted by molar mass.

Settings: buffer; pH 7.4; 200.0 µM

| SMILES | solubility kinetic [µg/mL] |
| --- | --- |
| CCC(C)NS(=O)(=O)c1cc2c3c(c1)CCC(=O)N3CCC2 (stereo not given) | > 48.4 |
| Cc1cccc(OCC(=O)NC2CCCCCC2)c1C | < 0.6 |
| CCOc1ccccc1CNS(=O)(=O)c1cnc[nH]1 | > 42.2 |
| Cc1ccc(-c2csc3nc[nH]c(=O)c23)cc1C | 6.6 (≈ 25.7 µM) |
| O=[N+]([O-])c1ccc(NC(=S)NCc2ccc(F)cc2)cc1 | 4.5 (≈ 14.7 µM) |
| Cc1cc(=O)[nH]c(Nc2cccc(Br)c2)n1 | > 42 |
| CCCCCNCc1ccc(Cl)cc1 | 12.4 (≈ 58.6 µM) |
| CC(C)=CC(=O)OCC(=O)Nc1ccc(SC(F)F)cc1 | 10.6 (≈ 33.6 µM) |
| C[n+]1c(-c2ccccc2)sc2ccccc21.[O-][Cl+3]([O-])([O-])[O-] | > 48.9 |
| CCNC(=O)c1ccc(=O)n(Cc2ccc(Cl)cc2Cl)c1 | 39 (≈ 120 µM) |
| O=c1[nH]c(SCc2c(Cl)cccc2Cl)nc2ccccc12 | < 0.4 |
| Cn1cccc1C(=O)OCC(=O)NCCc1ccc(S(N)(=O)=O)cc1 | > 54.8 |
| O=C1NC(=S)N(c2ccccc2)C(=O)/C1=C/c1ccco1 | 43 (≈ 144 µM) |
| COc1ccc(CNC(C)Cc2cccs2)cc1 (stereo not given) | 30.4 (≈ 116 µM) |
| O=C(NCCc1c[nH]c2ccccc12)/C(=C/c1cccnc1)NC(=O)c1ccco1 | > 60.1 |
| COc1ccc(CC(C)NC2CCCCCC2)cc1 (stereo not given) | 31 (≈ 119 µM) |
| CC(C)c1ccc(N)c(S(=O)(=O)O)c1 | > 32.3 |
| Cc1ccc([N+](=O)[O-])cc1S(=O)(=O)NCCc1cn2ccccc2n1 | 35 (≈ 97.1 µM) |
| CC(NC(=O)COC(=O)c1cc(Cl)nc(Cl)c1)c1ccccc1 (stereo not given) | > 53 |
| COc1ccc(/C=C/C(=O)Nc2cc(S(=O)(=O)N3CCOCC3)ccc2OC)cc1 | 8 (≈ 18.5 µM) |
| CCOc1ccc(C(=O)n2cc(C(=O)OC)c3ccccc32)cc1OCC | 3.9 (≈ 10.6 µM) |
| O=C(O)c1cc2c(cc1NC(=O)C1CCCC1)OCCO2 | > 43.7 |
| Cc1ccccc1C(=O)NC1CCN(C(=O)Nc2ccc(F)cc2)CC1 | 21.5 (≈ 60.5 µM) |
| Clc1ccc2c(c1)CCc1cccnc1C2=C1CCNCC1 | 21.6 (≈ 69.5 µM) |

| SMILES | solubility kinetic [µg/mL] |
| --- | --- |
| C=CCNC(=O)COC(=O)c1ccc(Cl)c(S(N)(=O)=O)c1 | > 49.9 |
| Fc1ccc(NC2=NCCCCC2)cc1 | > 30.9 |
| Br.Fc1ccccc1CNCC1CCCO1 (stereo not given) | 43.1 |
| Cc1ccc(/C=C/C(=O)OCC(=O)NCc2cccs2)o1 | 21.8 (≈ 71.4 µM) |
| CCN(c1ccccc1)S(=O)(=O)c1ccc(Cl)c(C(=O)O)c1 | > 51 |
| O=C(Cc1ccccc1)N1CCN(c2ccccc2F)CC1 | > 44.8 |
| CCOC(=O)c1ccc(S(=O)(=O)NC2CC2)cc1 | 32.4 (≈ 120 µM) |
| Cc1cc(OCCCn2ccnc2)cc(C(C)C)c1 | 23.3 (≈ 90.2 µM) |
| O=C1CC(C(=O)N2CCc3ccccc32)CN1c1ccccc1 (stereo not given) | 9.2 (≈ 30 µM) |
| O=Cc1c(N2CCSCC2)nc2ccccn2c1=O | > 41.3 |
| CCOC(=O)c1c(C)[nH]c(C(=O)COC(=O)CCNS(=O)(=O)c2ccc(NC(C)=O)cc2)c1C | 19.2 (≈ 38.9 µM) |
| Cc1cc(C(=O)CSc2nc(N)cc(=O)[nH]2)ccc1F | 32.5 (≈ 111 µM) |
| O=C(O)c1cccc(S(=O)(=O)Nc2ccc(Oc3ccccc3)cc2)c1 | > 55.4 |
| CCc1ccc(CNC(=O)C2CC(=O)N(C3CCCC3)C2)cc1 (stereo not given) | > 47.2 |
| O=C(NCc1ccncc1)C1=NN(c2ccccc2)C(=O)CC1 | > 46.3 |
| COc1ccccc1NC(=O)CN1CCN(c2ccccc2)CC1 | 35.3 (≈ 108 µM) |
| CN(C)/C=C/C(=O)c1ccc(OCCN(C)c2ccccn2)cc1 | > 48.8 |
| CCOC(=O)c1csc(NC(=O)CN2CCOCC2)n1 | > 44.9 |
| CC(OC(=O)c1ccccc1)C(=O)NCCC1=CCCCC1 (stereo not given) | > 45.2 |
| CS(=O)(=O)N1CCC(C(=O)Nc2cccc([N+](=O)[O-])c2)CC1 | 44.3 (≈ 135 µM) |
| CCCCCCCCOc1ccc(C2CC(=O)NC2=O)cc1 (stereo not given) | < 0.6 |
| CC(=O)NC(c1ccc(Cl)cc1Cl)c1ccc2cccnc2c1O (stereo not given) | 3 (≈ 8.31 µM) |
| CC(OC(=O)c1ccccc1CCc1ccccc1)C(N)=O (stereo not given) | > 44.6 |
| NC(C(=O)O)C(c1ccccc1)C(F)F (stereo not given) | 30 (≈ 139 µM) |

| SMILES | solubility kinetic [µg/mL] |
| --- | --- |
| CCOc1ccccc1NC(=O)c1cc(=O)[nH]c2ccc(S(=O)(=O)N3CCOCC3)cc12 | 21.4 (≈ 46.8 µM) |
| Cc1cc(C)c2c(N)c(C(=O)Nc3ccc(C)c(C)c3)sc2n1 | 1.1 (≈ 3.38 µM) |
| CNCCCC1c2ccccc2C=Cc2ccccc21.Cl | > 45 |
| C=CCNc1nc(C(=O)OCC(=O)c2ccc(F)cc2)cs1 | 11.2 (≈ 35 µM) |
| CCOC(=O)c1sc(=S)n(-c2ccccc2)c1C | 3.4 (≈ 12.2 µM) |
| Cn1c(-c2cccs2)nc2ccccc21 | 30.4 (≈ 142 µM) |
| CCS(=O)(=O)Nc1cc2c3c(c1)CCN3C(=O)CC2 | > 42.1 |
| O=S(=O)(NCC1CC1)c1cc(Cl)cc(Cl)c1 | 10.2 (≈ 36.4 µM) |
| CCc1ccccc1NC(=S)N(CCN(C)C)C(C)c1ccco1 (stereo not given) | 50.5 (≈ 146 µM) |
| Cn1c(C(=O)N[C@@H](Cc2ccccc2)C(=O)O)cc2cc(Cl)ccc21 | > 53.5 |
| O=C(NCCCCc1ccccc1)c1cccc([N+](=O)[O-])c1 | 8.5 (≈ 28.5 µM) |
| Oc1cc2c(cc1CN1CCN(c3ccc(F)cc3)CC1)OCO2 | 5.7 (≈ 17.3 µM) |
| O=C(COC(=O)CNC(=O)c1ccccc1Cl)NC1CCCC1 | > 50.8 |
| Cc1c(C(=O)NCC2CCCO2)oc2c(Cl)cccc12 (stereo not given) | > 44.1 |
| COc1ccc(S(=O)(=O)Nc2noc3ccccc23)cc1OC | > 50.2 |
| O=C(NC1CCCC1)C1CC(=O)N(c2ccccc2)C1 (stereo not given) | > 40.9 |
| O=C(CCSc1ccc(Cl)cc1)NCc1ccccn1 | 40.8 (≈ 133 µM) |
| CC1CC(C)(C)NC(=S)O1 (stereo not given) | > 23.9 |
| O=C(O)Cn1cc(/C=N/Nc2ccc([N+](=O)[O-])cn2)c2ccccc21 | > 50.9 |
| CCCCOc1ccc(C(=O)NCC(=O)OCC(=O)c2c(N)n(C)c(=O)n(C)c2=O)cc1 | 10.9 (≈ 24.4 µM) |
| CC(OC(=O)Cc1c[nH]c2ccccc12)C(=O)NC1(C#N)CCCCC1 (stereo not given) | > 53 |
| O=C(CCC1CCCC1)NCCCNC(=O)CCC1CCCC1 | 36.2 (≈ 112 µM) |
| CC(C)(C)c1ccc(C(CC(=O)O)NC(=O)Cc2ccccc2)cc1 (stereo not given) | 49.3 (≈ 145 µM) |
| CCCCCCCn1c(=O)c(C(=O)OC)c(N)c2ccccc21 | < 0.3 |

| SMILES | solubility kinetic [µg/mL] |
| --- | --- |
| Cc1nc(NC(=O)c2c(-c3ccccc3)noc2C)sc1C(=O)N(C)C | > 55.6 |
| Cc1cc(C)c2c(=O)cc(C(F)(F)F)oc2n1 | 17.3 (≈ 71.1 µM) |
| O=C1CN=C(c2ccccc2)c2cc([N+](=O)[O-])ccc2N1 | > 42.2 |
| O=C1C(Cl)=C(N2CCCC2)C(=O)N1c1ccc(F)cc1 | 7.4 (≈ 25.1 µM) |
| COc1ccc(CN2CCN(Cc3ccc(C)cc3)C(CCO)C2)cc1OC (stereo not given) | 51.8 (≈ 135 µM) |
| CCCNC(=O)C(=O)NCC1CCCN1CC (stereo not given) | 36 (≈ 149 µM) |
| CN1CCN(C(=O)C23CCC(C)(C(=O)C2Br)C3(C)C)CC1 (stereo not given) | > 53.6 |
| COc1cccc2c(Cl)c(CCCl)c(C)nc12 | 1.1 (≈ 4.07 µM) |
| CC(=O)Oc1ccc(C(=O)Nc2cccc(C(=O)NC(C)(C)C)c2)cc1 | 45 (≈ 127 µM) |
| CN(CCO)c1nc(N)c(C#N)c(CC#N)c1C#N | > 38.4 |
| NC(=O)Nc1ccc(C(=O)OCC(=O)N2CCCC2=O)cc1 | > 45.8 |
| Cc1ccc(S(=O)(=O)NCC(=O)Nc2cccnc2)cc1C | > 47.9 |
| O=c1c2sc(-c3ccccc3)cc2nc2n1CCCCC2 | 29.5 (≈ 99.5 µM) |
| COC(=O)CSc1nc(N2CCOCC2)c2c(c1C#N)CCCC2 | 25.6 (≈ 73.7 µM) |
| Cc1ccccc1CSc1nc2ccccc2c(=O)n1C | 1.5 (≈ 5.06 µM) |
| Cc1ccc(S(=O)(=O)CC(=O)Nc2cc(C)on2)cc1 | 37.6 (≈ 128 µM) |
| Br.C=CCn1c(=N)n(CC(=O)c2ccccc2)c2ccccc21 | > 55.8 |
| CCOc1ccc(-c2ncncc2-c2ccc(OC)c(OC)c2)c(O)c1 | 3.6 (≈ 10.2 µM) |
| COc1ccc(CNc2ccc3c(c2)nc(C)n3C)cc1OC | 37.2 (≈ 119 µM) |
| COc1cc(Oc2ccccc2)nc(N)n1 | > 32.6 |
| COc1ccc2nc(-c3ccccn3)[nH]c2c1 | 24.8 (≈ 110 µM) |
| CN(C(=O)Cn1cnc2sccc2c1=O)C1CCCCC1 | > 45.8 |
| OCCN(Cc1ccccc1)C(=S)Nc1ccc(F)cc1 | 43.1 (≈ 142 µM) |
| CN1CCCN(C(=O)CNC(=O)c2ccccc2F)CC1 | > 44 |

| SMILES | solubility kinetic [µg/mL] |
| --- | --- |
| C=CCN(C(=O)CN1CCCCC1)c1nc(-c2ccccc2)cs1 | 2.4 (≈ 7.03 µM) |
| COc1cnc(-c2ccccn2)nc1Oc1cccc(C(F)(F)F)c1 | 37.4 (≈ 108 µM) |
| CC(=O)Nc1nc(-c2ccccc2)cc(-c2ccco2)c1C#N | 2 (≈ 6.59 µM) |
| Cc1cc(S(=O)(=O)Nc2cccnc2)c(Cl)cc1Cl | 4.5 (≈ 14.2 µM) |
| O/N=C/c1ccc(-c2ccccc2OC(F)(F)F)o1 | 1.7 (≈ 6.27 µM) |
| CC(=O)c1c(OC(=O)c2ccccc2)ccnc1C(F)(F)F | > 46.4 |
| CC(=O)c1ccc(-n2c(C)c(C(C)=O)c3cc(O)ccc32)cc1 | < 0.7 |
| Cn1c(SCc2ccccc2)nc(N)c(N=O)c1=O | 13.6 (≈ 49.2 µM) |
| COc1ccc(CCNC(=O)c2ccc(OCc3c(C)noc3C)c(OC)c2)cc1 | 2.3 (≈ 5.6 µM) |
| Cc1cc2oc(=O)cc(CN3CCCCC3C)c2cc1C(C)C (stereo not given) | 8.1 (≈ 25.8 µM) |
| Cc1ccc(Nc2nc(N)nc(CCl)n2)cc1 | > 37.5 |
| COc1ccccc1NC(=O)NCCCCc1ccccc1 | 5.3 (≈ 17.8 µM) |
| COc1cccc(C(=O)N2CCOCC2)c1OC | > 37.7 |
| COc1ccc(CC(=O)OCC(=O)NC2CCCC(C)C2C)cc1 (stereo not given) | > 50 |
| COC(=O)CN(c1nc(C)c(Br)c(OC)n1)S(=O)(=O)c1ccccc1 | 14.4 (≈ 33.5 µM) |
| O=C(CSc1ccccc1F)NCCN1C(=O)CSC1=O | 48.1 (≈ 146 µM) |
| CC1CC(C)CN(C(=O)CN2C(=O)NC3(CCCCCC3)C2=O)C1 (stereo not given) | > 50.3 |
| O=c1c2cc(F)ccc2[nH]c(=S)n1Cc1ccc(F)cc1 | 0.9 (≈ 2.96 µM) |
| COc1cccc(Nc2nc(-c3cccnc3)cs2)c1 | 1.3 (≈ 4.59 µM) |
| CN(C)CCCNc1oc(/C=C/c2ccccc2)nc1C#N | > 44.5 |
| CC(C)Oc1ccc(C(=O)NCCCNC(=O)c2ccccn2)cc1 | 48.6 (≈ 142 µM) |
| CN(C)CC[n+]1ccc(C(=O)c2ccccc2)cc1.Cl.[Cl-] | > 49.1 |
| O=C1c2ccccc2NC(c2ccccc2O)N1O (stereo not given) | > 38.4 |
| Cc1ccnc(NC(=O)c2ccc([N+](=O)[O-])s2)c1 | 4 (≈ 15.2 µM) |
